SMILES strings stand for the structures.

A short description of assay [1]: Inhibition of LAG-3-MHCII (unknown origin) interaction incubated for 2 hrs by TR-FRET assay. The arrangement: species or system Homo sapiens.
Assay [2] is described as follows: Inhibition of LAG-3/FGL1 (unknown origin) interaction incubated for 2 hrs by TR-FRET assay. The arrangement: species or system Homo sapiens. (In TR-FRET formats the signal depends on donor and acceptor labels being close together.)
The species named for a further assay is Homo sapiens. Kind of assay: Inhibition of LAG-3-MHCII (unknown origin) interaction at 10 to 30 uM incubated for 2 hrs by TR-FRET assay relative to control. As to conditions: dose 10-30 µM.
A short description of assay [3]: Inhibition of LAG-3/FGL1 (unknown origin) interaction by ELISA analysis. Details: species or system Homo sapiens. For orientation: In an ELISA, binding on a coated surface is turned into a signal by an enzyme label.
The nature of assay [4]: (§1) Inhibition of LAG-3-MHCII interaction in human Jurkat T cells expressing human LAG-3/luciferase reporter co-cultured with MHCII antigen presenting cells assessed as increase in luminescence by Bio-Glo reagent based assay. Format: cell-based. A general note: In a reporter assay the amount or activity of a reporter protein is the signal.
In the next assay the test system is Jurkat T. The assay is described as §1. The format is cell-based.

A word on the IC50: it is the concentration at which inhibition is half-maximal. As to `COCCCn1c(C)cc(C(=O)COc2ccc(NC(C)=O)cc2)c1C`, the IC50 in assay [1] and in assay [2] was above 50 µM throughout.

Take `Cc1cc(C(=O)COc2ccc(NC(=O)c3ccccc3)cc2)c(C)n1Cc1ccco1`: the values for the IC50 in assay [1] and in assay [2] were 9.38 µM and 9.94 µM, respectively.

With `CC(=O)Nc1ccc(OCC(=O)c2cc(C)n(C(C)C)c2C)cc1`, the IC50 in assay [1] and in assay [2] was above 50 µM throughout.

Consider `C=CCn1c(C)cc(C(=O)COc2ccccc2C(=O)Nc2ccccc2)c1C`, for which the IC50 in assay [1] and in assay [2] was above 50 µM throughout.

Broadly, the inhibition is the share of the control response that was lost under treatment. With `Cc1cc(C(=O)COc2ccc(NC(=O)c3ccco3)cc2)c(C)n1C`, the inhibition in the assay filed under Homo sapiens was above 90%. In addition, the values for the concentration for half-maximal inhibition (IC50) in assay [1], in assay [2] and in assay [3] were 14.8 µM, 16.7 µM and 18.5 µM, respectively.

For the molecule `C=CCn1c(C)cc(C(=O)COc2ccc(NC(=O)c3cccc([N+](=O)[O-])c3)cc2)c1C`, the IC50 in assay [1] and in assay [2] was above 50 µM each time.

Regarding `Cc1cc(C(=O)COc2ccc(NC(=O)c3ccco3)cc2)c(C)n1-c1ccccc1`, the IC50 in assay [1] is 8.36 µM; in assay [2] it was 13.7 µM.

In the case of `CCCn1c(C)cc(C(=O)COc2ccccc2NC(C)=O)c1C`, the concentration for half-maximal inhibition (IC50) in assay [1] and in assay [2] was above 50 µM each time.

For the molecule `COc1ccccc1C(=O)Nc1ccc(OCC(=O)c2cc(C)n(C)c2C)cc1`, the concentration for half-maximal inhibition (IC50) in assay [1] came out at 25.7 µM; in assay [2] it was 35.4 µM.

Regarding `CC(=O)Nc1ccccc1OCC(=O)c1cc(C)n(CCc2ccc(F)cc2)c1C`, the half-maximal inhibitory concentration (IC50) is 28.4 µM in assay [1] and 32.7 µM in assay [2].

`CC(=O)Nc1ccc(OCC(=O)c2cc(C)n(CCc3ccc(F)cc3)c2C)cc1`: the values for the half-maximal inhibitory concentration (IC50) in assay [1] and in assay [2] were 28.4 µM and 21.4 µM, respectively.

On to `Cc1cc(C(=O)COc2ccc(C(N)=O)cc2)c(C)n1C`, for which the IC50 in assay [1] and in assay [2] was above 50 µM in each case.

On to `Cc1cc(C(=O)COc2ccc(N3CCCC3=O)cc2)c(C)n1C1CC1`, for which the IC50 in assay [1] was found to be 17.2 µM; in assay [2], 20.4 µM.

Regarding `Cc1cc(C(=O)COc2ccc(NC(=O)c3ccco3)cc2)c(C)n1Cc1ccccc1`, the IC50 in assay [1] was 4.21 µM; in assay [2], 6.52 µM; in assay [4], 6.95 µM. Moreover, the inhibition result in the assay with Jurkat T was “Dose-Dependent Effect”.

On to `CCC(=O)c1ccc(OCC(=O)c2cc(C)n(Cc3ccco3)c2C)cc1`, for which the results for the IC50 in assay [1] and in assay [2] were 20.4 µM and 28.7 µM, respectively.

Consider `CC(=O)Nc1ccc(OCC(=O)c2cc(C)n(-c3ccc(OC(F)F)cc3)c2C)cc1`, for which the results for the 50% inhibitory concentration (IC50) in assay [1] and in assay [2] were 12.4 µM and 16.5 µM, respectively.

Take `CC(=O)Nc1ccc(OCC(=O)c2cc(C)n(Cc3ccccc3)c2C)cc1`: the IC50 was found to be 18.3 µM in assay [1] and 20.4 µM in assay [2].

As to `Cc1cc(C(=O)COc2ccccc2C(=O)Nc2ccccc2)c(C)[nH]1`, the IC50 in assay [1] and in assay [2] was above 50 µM throughout.

As to `Cc1cc(C(=O)COc2ccccc2C(=O)Nc2ccccc2)c(C)n1CC1CCCO1` (stereo not drawn), the 50% inhibitory concentration (IC50) came to 18.4 µM in assay [1] and 14.2 µM in assay [2].

In the case of `CC(=O)Nc1cccc(OCC(=O)c2cc(C)n(-c3ccc(C)c(C)c3)c2C)c1`, the half-maximal inhibitory concentration (IC50) in assay [1] was 31.4 µM; in assay [2], 25.5 µM.

For the molecule `CC(=O)Nc1ccc(OCC(=O)c2cc(C)n(-c3ccc(Cl)c(Cl)c3)c2C)cc1`, the IC50 in assay [1] is 11.2 µM; in assay [2] it was 10.3 µM.

As for `CC(=O)Nc1ccc(OCC(=O)c2cc(C)n(CCc3ccccc3)c2C)cc1`, the IC50 stood at 23.4 µM in assay [1] and 28.5 µM in assay [2].

Regarding `CC(=O)Nc1ccc(OCC(=O)c2cc(C)n(-c3ccccc3F)c2C)cc1`, the IC50 was determined as 21.3 µM in assay [1] and 29.4 µM in assay [2].

In the case of `Cc1cc(C(=O)COc2ccc(C(N)=O)cc2)c(C)n1CCc1ccc(F)cc1`, the IC50 in assay [1] stood at 18.3 µM; in assay [2], 22.4 µM.

Consider `Cc1ccc(-n2c(C)cc(C(=O)COc3ccc(NC(=O)c4ccc(C(C)(C)C)cc4)cc3)c2C)cc1`, for which the results for the IC50 in assay [1] and in assay [2] were 19.3 µM and 18.2 µM, respectively.

As for `Cc1ccc(-n2c(C)cc(C(=O)COc3ccc(C(N)=O)cc3)c2C)cc1`, the IC50 in assay [1] is 26.9 µM; in assay [2], 29.4 µM.

Consider `CCCn1c(C)cc(C(=O)COc2ccc(NC(C)=O)cc2)c1C`, for which the IC50 in assay [1] and in assay [2] was above 50 µM each time.

Values taken from ChEMBL document CHEMBL5257143, “Discovery of First-in-Class Small Molecule Inhibitors of Lymphocyte Activation Gene 3 (LAG-3)” (ACS Med Chem Lett, 2023).
